Patent US10040838B2, “CRHR2 peptide agonists and uses thereof” (JANSSEN PHARMACEUTICA NV, priority 2008, dated 2018)
Several values for one entry are separate records, joined by “and”; a condition that tells them apart may be missing. Equal entries are not always repeated. No end group written: not given here.

What was measured:
human CRHR2 [1] = molecular target: T1, human CRHR2 (Homo sapiens, UniProt Q13324); experiment: cAMP assay in h-CRHR2 transfected SK-N-MC cells; type: cell-based; details: for Experimental nH / nH: Hill slope; for Experimental αmax: maximal asymptote
T1 construct: expressed in transfected cells
T1 sequence (Q13324 1-411): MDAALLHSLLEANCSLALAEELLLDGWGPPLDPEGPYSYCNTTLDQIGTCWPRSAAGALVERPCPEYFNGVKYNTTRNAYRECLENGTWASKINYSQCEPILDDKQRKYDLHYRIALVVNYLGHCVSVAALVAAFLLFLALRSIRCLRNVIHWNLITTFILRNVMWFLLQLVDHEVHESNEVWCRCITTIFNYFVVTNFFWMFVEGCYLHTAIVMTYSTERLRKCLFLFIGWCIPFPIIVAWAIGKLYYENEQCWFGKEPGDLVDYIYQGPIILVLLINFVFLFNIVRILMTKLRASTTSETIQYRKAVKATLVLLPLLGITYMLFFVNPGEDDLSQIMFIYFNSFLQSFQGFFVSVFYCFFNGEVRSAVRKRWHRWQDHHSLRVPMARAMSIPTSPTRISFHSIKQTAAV
In short: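 Intracellular cAMP was read by competition with [125I]-cAMP for an anti-cAMP antibody after HCl lysis of human CRHR2-transfected SK-N-MC cells. Cells had been exposed to peptide, 1 pM to 10 μM, for 60 min at 37 °C in IBMX (10 μM) buffer. A50 and pA50 came from Hill fits; Log DR was computed against h-SCP within each batch.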

human CRHR2 [2] = molecular target: T1, human CRHR2; experiment: Radioligand binding, membranes of SK-N-MC cells transfected with human CRHR2, [125I]-anti-sauvagine-30; details: for CRHR2 nH: Table 15, slope of competition curve
Experimental: The binding profile of h-SCP (SEQ ID NO:1) at CRHR2 was determined in radioligand binding studies in a membrane preparation of SK-N-MC cells stably transfected with human CRHR2 using [^125I]-anti-sauvagine-30 as the radiolabel. […] The solution was then homogenized with a Polytron tissue grinder at a setting of 10 and 7×3 s (Brinkmann Instruments, Westbury, N.Y.). The homogenate was centrifuged at 4° Celsius at 800×g for 5 min with the pellet being discarded. The supernatant was re-centrifuged at 26,892×g for 25 min at 4° Celsius with the final pellet being re-suspended in assay buffer. All binding assays were conducted in 96-well Multiscreen GF/B filter plates (Millipore, Billericay, Mass., U.S.A.) that were pre-soaked in assay buffer with 0.3% PEI for 1 hour. […] The bound radioactivity was separated by filtration using a Multiscreen Resist manifold (Millipore Corp., Billerica, Mass., U.S.A). The filters were washed three times with ice-cold PBS at pH 7.5 and radioactivity retained on the filters was quantified by its liquid scintillation measured by a TopCount counter (Packard BioScience, Boston, Mass., U.S.A). All experiments were performed in triplicate. Data from individual competition curves were expressed as the percentage of specific [^125I]-anti-sauvagine-30 or)[^125I]-([…])-sauvagine binding (B) within each experiment.

[3] = CRHR2, Table 11, listed as h-SRP
[4] = CRHR2, Table 11, listed as h-SCP

| Experimental nH (human CRHR2 [1]; CRHR2, Table 11) | Experimental αmax (human CRHR2 [1]; CRHR2, Table 11) | CRHR2 nH (human CRHR2 [2]) | Experimental nH (human CRHR2 [1]; [3]) | Experimental αmax (human CRHR2 [1]; [3]) | Compound | Experimental pA50 (human CRHR2 [1]; CRHR2, Table 11, 1 hr at 37° Celsius, listed as h-SCP) | Experimental nH (human CRHR2 [1]; [4]) | Experimental αmax (human CRHR2 [1]; [4]) | nH (human CRHR2 [1]; Table 12) | pA50 (human CRHR2 [1]; Table 12, amidation and N-terminal deletions, 3-5 replicate experiments) | pA50 (human CRHR2 [1]; Table 14) | nH (human CRHR2 [1]; Table 14) | EC50 (human CRHR2 [1]; text b184, read-out: concentration required for 50% maximum effect (A50)) [nM] | pA50 (human CRHR2 [1]; text b201-b202, N-terminal deletions, parent in one batch) | competition curve / affinity states (human CRHR2 [2]; [125I]-anti-sauvagine-30 competition) |
| --- | --- | --- | --- | --- | --- | --- | --- | --- | --- | --- | --- | --- | --- | --- | --- |
| 1.07 | 110.5 | 1.19 ± 0.14 |  |  | CC[C@H](C)[C@H](NC(=O)[C@H](CO)NC(=O)[C@H](CC(C)C)NC(=O)[C@@H]1CCCN1C(=O)[C@@H]1CCCN1C(=O)[C@H](CC(=O)O)NC(=O)[C@@H](N)CC(=O)O)C(=O)N[C@@H](CC(=O)O)C(=O)N[C@@H](CC(C)C)C(=O)N[C@H](C(=O)N[C@@H](Cc1ccccc1)C(=O)N[C@@H](Cc1c[nH]cn1)C(=O)N[C@@H](CC(C)C)C(=O)N[C@@H](CC(C)C)C(=O)N[C@@H](CCCNC(=N)N)C(=O)N[C@H](C(=O)N[C@@H](CC(C)C)C(=O)N[C@@H](CC(C)C)C(=O)N[C@@H](CCC(=O)O)C(=O)N[C@@H](CC(C)C)C(=O)N[C@@H](C)C(=O)N[C@@H](CCCNC(=N)N)C(=O)N[C@H](C(=O)N[C@@H](CCC(N)=O)C(=O)N[C@@H](CO)C(=O)N[C@@H](CCC(N)=O)C(=O)N[C@@H](CCCNC(=N)N)C(=O)N[C@@H](CCC(=O)O)C(=O)N[C@@H](CCCNC(=N)N)C(=O)N[C@@H](C)C(=O)N[C@@H](CCC(=O)O)C(=O)N[C@@H](CCC(N)=O)C(=O)N[C@@H](CC(N)=O)C(=O)N[C@@H](CCCNC(=N)N)C(=O)N[C@H](C(=O)N[C@H](C(=O)N[C@@H](Cc1ccccc1)C(=O)N[C@@H](CC(=O)O)C(=O)N[C@@H](CO)C(=O)N[C@H](C(N)=O)C(C)C)[C@@H](C)CC)[C@@H](C)CC)[C@@H](C)O)[C@@H](C)O)[C@@H](C)O [SEQ ID NO: 114, DDPPLSIDLTFHLLRTLLELARTQSQRERAEQNRIIFDSV-NH2] |  |  |  |  |  |  |  |  |  |  |
|  |  | 1.26 ± 0.14 | 1.08 and 1.06 and 0.99 | 113.5 and 108.7 and 98.56 | HPGSRIVLSLDVPIGLLQILLEQARARAAREQATTNARILARV-NH2 [SEQ ID NO: 117, HPGSRIVLSLDVPIGLLQILLEQARAPAAREQATTNARILARV-NH2, reference compound] |  |  |  |  |  |  |  |  |  |  |

| Compound | Experimental nH (human CRHR2 [1]; CRHR2, Table 11) | Experimental αmax (human CRHR2 [1]; CRHR2, Table 11) | CRHR2 nH (human CRHR2 [2]) | Experimental nH (human CRHR2 [1]; [3]) | Experimental αmax (human CRHR2 [1]; [3]) | Experimental pA50 (human CRHR2 [1]; CRHR2, Table 11, 1 hr at 37° Celsius, listed as h-SCP) | Experimental nH (human CRHR2 [1]; [4]) | Experimental αmax (human CRHR2 [1]; [4]) | nH (human CRHR2 [1]; Table 12) | pA50 (human CRHR2 [1]; Table 12, amidation and N-terminal deletions, 3-5 replicate experiments) | pA50 (human CRHR2 [1]; Table 14) | nH (human CRHR2 [1]; Table 14) | EC50 (human CRHR2 [1]; text b184, read-out: concentration required for 50% maximum effect (A50)) [nM] | pA50 (human CRHR2 [1]; text b201-b202, N-terminal deletions, parent in one batch) | competition curve / affinity states (human CRHR2 [2]; [125I]-anti-sauvagine-30 competition) |
| --- | --- | --- | --- | --- | --- | --- | --- | --- | --- | --- | --- | --- | --- | --- | --- |
| TKFTLSLDVPTNIMNLLFNIAKAKNLRAQAAANAHLMAQI-NH2 [SEQ ID NO: 1, TKFTLSLDVPTNIMNLLFNIAKAKNLRAQAAANAHLMAQI-NH2, reference compound] |  |  | 1.00 ± 0.04 |  |  | 9.41 | 0.99 and 1.04 and 1.39 and 1.55 | 99.31 and 97.53 and 116.1 and 98.2 | 1.18 | 9.41 | 9.40 | 1.26 | 0.4 | 9.41±0.03 | biphasic |
